Values of other authors in patent publication EP0682945B1, “Oral sustained release preparation” (Lannacher Heilmittel Ges.m.b.H., priority 1994, dated 1995).

Settings: orale Anwendung, im Mittel

In the case of CN1CC[C@]23c4c5ccc(O)c4O[C@H]2[C@@H](O)C=C[C@H]3[C@H]1C5 [Morphin], the Bioverfügbarkeit is given as 38%.
